Test results from patent publication US7041785B1, “B1-bradykinin receptor antagonists and use thereof” (Université de Sherbrooke, priority 1996, dated 2006).
Non-standard residues stand in square brackets, D forms with d. Residues, ends and D or L forms follow the SMILES beside them. Oic = O=C(O)[C@@H]1C[C@@H]2CCCC[C@@H]2N1; Hyp = O=C(O)[C@@H]1C[C@@H](O)CN1; dTic = O=C(O)[C@H]1Cc2ccccc2CN1; 2Thi = N[C@@H](Cc1cccs1)C(=O)O

Assays:
B2 receptor = target: T1, B2 receptor (Oryctolagus cuniculus, UniProt Q28642); details: vs BK; captopril 1 μmol/L; Inactive = no detectable antagonistic effect at ≦ 10 μg/ml
T1 sequence (Q28642 1-367): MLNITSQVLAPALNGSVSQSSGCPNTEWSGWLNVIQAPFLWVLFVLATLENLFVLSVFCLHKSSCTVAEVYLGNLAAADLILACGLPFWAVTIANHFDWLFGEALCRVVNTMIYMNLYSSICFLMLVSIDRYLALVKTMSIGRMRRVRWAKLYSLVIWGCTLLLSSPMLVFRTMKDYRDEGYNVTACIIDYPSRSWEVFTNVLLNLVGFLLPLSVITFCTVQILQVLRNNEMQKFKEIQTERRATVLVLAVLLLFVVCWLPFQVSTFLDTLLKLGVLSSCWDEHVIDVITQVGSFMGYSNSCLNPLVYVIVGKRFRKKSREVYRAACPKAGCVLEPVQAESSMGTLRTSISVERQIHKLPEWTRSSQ

human B2 receptor = target: T2, human B2 receptor (Homo sapiens, UniProt P30411); test: Human umbilical vein bioassay in presence of Lys(Leu8)desArg9BK, B2 receptor; type: cell-based; details: vs BK, Lys(Leu8)desArg9BK 1 μmol/L present
T2 construct: Helical strips of HUV were prepared according to Gobeil et al; from tissue; host or cells: human umbilical vein helical strips
T2 sequence (P30411 1-391): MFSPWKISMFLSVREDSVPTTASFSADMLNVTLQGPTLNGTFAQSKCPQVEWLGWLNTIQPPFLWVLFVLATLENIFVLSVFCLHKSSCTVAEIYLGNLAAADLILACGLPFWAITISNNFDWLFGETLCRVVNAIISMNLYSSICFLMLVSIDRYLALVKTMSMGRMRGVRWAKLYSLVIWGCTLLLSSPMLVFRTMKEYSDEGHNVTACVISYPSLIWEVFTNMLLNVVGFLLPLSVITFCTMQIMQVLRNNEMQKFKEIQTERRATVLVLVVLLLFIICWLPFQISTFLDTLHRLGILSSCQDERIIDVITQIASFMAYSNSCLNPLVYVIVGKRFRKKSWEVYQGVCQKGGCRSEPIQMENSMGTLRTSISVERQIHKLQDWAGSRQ
Excerpt: Tissues were taken from New Zealand white rabbits (1.5–2.5 kg) and Dunken Hartley guinea pigs (250–350 g) of either sex, killed by stunning and exsanguination. Umbilical cords were taken from healthy women 22–40 years old after spontaneous delivery at term. The rabbit jugular vein (RbJV), the guinea pig ileum (GPI), two preparations containing B2 receptors, the rabbit aorta (RbA) (B1 receptor) and the human umbilical vein (HUV), a mixed preparation containing both B1 and B2 receptors^10, were used. Helical strips of RbJV treated with 1 μmol/L of captopril to avoid peptide degradation by the angiotensin-converting enzyme (ACE), alias kininase II were prepared according to Gaudreau et al.^11 Helical strips of RbA devoid of endothelium were prepared according to Furchgott and Bhadrakom^12. Longitudinal segments of GPI were prepared with the procedure described by Rang^13. Helical strips of HUV were prepared according to Gobeil et al.^10. The tissues were suspended in 10-ml organ baths containing warm (37EC), oxygenated (95% O2–5% CO2) Krebs solution of the following composition in mmol/L; NaCl: 118.1; KCl: 4.7; CaCl26H2O: 2.5; KH2PO4: 1.2; MgSO47H2O: 1.18; NaHCO3: 25.0 and D-Glucose: 5.5. The RbA and the HUV were stretched with an initial tension of 2 g, whereas the RbJV and the GPI were loaded with 0.5 g. Changes of tension produced by the various agents were measured with Grass isometric transducers (model FT 03C, Grass Instrument Co., Quincy, Mass.). […] Before testing the drugs, the tissues were allowed to equilibrate for 60–120 min during which time the tissues were repeatedly washed and the tension readjusted every 15 min.
At the beginning of each experiment, a submaximal dose of bradykinin (BK) (9 nmol/L), was applied repeatedly on the RbJV, the GPI or the HUV to ensure that tissues responded with stable contractions. […] A similar protocol was used for the HUV.
Repeated applications of a singl and double concentration of BK (on RbJV, GPI and HUV) and of desArg^9BK (RbA and HUV) were made in the absence and in presence of the various peptides to evaluate their apparent affinities as antagonists, in terms of pA2 (-log10 of the molar concentration of antagonist that reduces the effect of a double concentration of agonist to that of a single one)^14. The antagonists were applied 10 min before measuring the myotropic effects of either BK (the B2 receptor agonist) or desArg^9BK (the B1 receptor agonist). […] All kinin antagonists were initially applied to tissues at concentration of 10 μg/mL to measure their potential agonistic activities (α^E) in comparison with BK (in the B2 receptor preparations) or desArg^9BK (in the B1 receptor preparations).

human B1 receptor = target: T3, human B1 receptor (Homo sapiens, UniProt P46663); test: cell-based; details: HOE140 400 nmol/L present; for Kb: Human umbilical vein B1 receptor pA2, vs desArg9BK
T3 sequence (P46663 1-353): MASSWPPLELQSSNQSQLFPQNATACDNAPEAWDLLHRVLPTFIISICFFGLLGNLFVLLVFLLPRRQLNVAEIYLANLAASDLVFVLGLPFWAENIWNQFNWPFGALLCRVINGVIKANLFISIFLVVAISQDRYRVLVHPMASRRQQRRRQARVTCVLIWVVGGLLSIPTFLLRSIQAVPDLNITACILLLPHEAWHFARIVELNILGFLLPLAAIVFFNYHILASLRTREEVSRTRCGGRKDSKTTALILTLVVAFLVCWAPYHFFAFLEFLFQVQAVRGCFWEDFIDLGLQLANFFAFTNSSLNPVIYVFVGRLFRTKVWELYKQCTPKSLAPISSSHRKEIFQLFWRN
Procedure, shortened: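 Isolated rabbit jugular vein (captopril 1 μmol/L), guinea pig ileum, endothelium-free rabbit aorta and human umbilical vein, in Krebs at 37 °C, with isometric tension recorded. Agonism was tested at 10 μg/mL.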

In the case of `CC(C)C[C@H](NC(=O)[C@H]1Cc2ccccc2CN1C(=O)[C@H](CO)NC(=O)[C@H](Cc1ccccc1)NC(=O)CNC(=O)[C@@H]1CCCN1C(=O)[C@@H]1CCCN1C(=O)[C@@H](N)CCCNC(=N)N)C(=O)O` [Compound 8, (D-Tic^7, Leu^8)desArg^9BK] (H-RPPGFS[dTic]L-OH; N-terminus and C-terminus assumed), the “Rb.J.V. pA2” value (B2 receptor) is reported as “Inactive”, the “Human umbilical vein B2 receptor pA2” value (human B2 receptor) is reported as “Inactive” and the Kb (human B1 receptor) is reported as 2750 nM.
With `N=C(N)NCCC[C@@H](N)C(=O)N[C@@H](CCCNC(=N)N)C(=O)N1CCC[C@H]1C(=O)N1C[C@H](O)C[C@H]1C(=O)NCC(=O)N[C@@H](Cc1cccs1)C(=O)N[C@@H](CO)C(=O)N1Cc2ccccc2C[C@@H]1C(=O)N1[C@H](C(=O)O)C[C@@H]2CCCC[C@@H]21` [Compound 31, D-Arg(Hyp^3, Thi^5, D-Tic^7, Oic^8)desArg^9BK, reference compound] (H-[dR]RP[Hyp]G[2Thi]S[dTic][Oic]-OH; N-terminus and C-terminus assumed) the “Human umbilical vein B2 receptor pA2” value (human B2 receptor) was “Inactive”, the Kb (human B1 receptor) was 51.3 nM and the “Human umbilical vein B1 receptor pA2” value (human B1 receptor; vs desArg9BK) was 7.29.
